Measurements as given in ChEMBL document CHEMBL5108067, “Discovery of Potent OTUB1/USP8 Dual Inhibitors Targeting Proteostasis in Non-Small-Cell Lung Cancer” (J Med Chem, 2022).

What was measured:
[1] = target: T1, Ubiquitin carboxyl-terminal hydrolase 8 (Homo sapiens) (UniProt P40818); assay: Inhibition of N-terminal His-6 tagged USP8 (734 to 1110 residues) (unknown origin) expressed in Escherichia coli BL21 (DE3) cells at 100 nM measured after 3 hrs by fluorescence based Plate reader method relative to control; conditions: values are per cent of control
T1 sequence (whole entry): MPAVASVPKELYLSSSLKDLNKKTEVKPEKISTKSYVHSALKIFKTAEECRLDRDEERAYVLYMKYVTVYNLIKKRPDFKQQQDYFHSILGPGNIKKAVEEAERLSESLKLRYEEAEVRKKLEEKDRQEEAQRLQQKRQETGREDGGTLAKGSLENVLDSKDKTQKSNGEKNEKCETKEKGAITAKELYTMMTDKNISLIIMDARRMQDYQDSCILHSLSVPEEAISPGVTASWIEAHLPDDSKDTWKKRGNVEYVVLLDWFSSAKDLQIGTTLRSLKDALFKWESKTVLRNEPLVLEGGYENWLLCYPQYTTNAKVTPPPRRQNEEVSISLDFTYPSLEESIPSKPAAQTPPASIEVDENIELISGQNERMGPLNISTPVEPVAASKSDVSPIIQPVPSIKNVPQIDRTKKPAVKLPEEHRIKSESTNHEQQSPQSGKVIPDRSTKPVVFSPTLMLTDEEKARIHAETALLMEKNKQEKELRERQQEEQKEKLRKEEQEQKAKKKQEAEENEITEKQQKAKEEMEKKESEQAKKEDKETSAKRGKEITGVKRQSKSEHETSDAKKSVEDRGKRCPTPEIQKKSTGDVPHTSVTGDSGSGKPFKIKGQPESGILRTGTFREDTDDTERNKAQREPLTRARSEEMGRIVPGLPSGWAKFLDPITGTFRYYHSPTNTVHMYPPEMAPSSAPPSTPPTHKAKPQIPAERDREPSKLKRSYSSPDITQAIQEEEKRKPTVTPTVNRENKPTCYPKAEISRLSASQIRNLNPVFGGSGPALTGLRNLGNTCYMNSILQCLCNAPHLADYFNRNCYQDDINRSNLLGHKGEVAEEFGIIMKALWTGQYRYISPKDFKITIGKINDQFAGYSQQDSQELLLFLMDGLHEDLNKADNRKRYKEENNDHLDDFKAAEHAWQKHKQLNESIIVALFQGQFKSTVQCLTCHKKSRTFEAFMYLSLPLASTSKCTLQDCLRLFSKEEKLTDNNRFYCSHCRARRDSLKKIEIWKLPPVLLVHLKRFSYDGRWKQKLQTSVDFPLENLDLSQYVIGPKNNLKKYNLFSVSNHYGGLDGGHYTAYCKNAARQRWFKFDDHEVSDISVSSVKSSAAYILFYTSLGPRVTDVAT

[2] = target: T2, Ubiquitin thioesterase OTUB1 (Homo sapiens, UniProt Q96FW1); assay: Inhibition of N-terminal His-6 tagged OTUB1 (40 to 271 residues) (unknown origin) expressed in Escherichia coli BL21 (DE3) cells at 100 nM using Ub-Rho measured after 0.5 to 3 hrs by fluorescence based Plate reader method relative to control; conditions: time 0.5-3 hrs, values are per cent of control
[3] = target: T1, Ubiquitin carboxyl-terminal hydrolase 8 (Homo sapiens); assay: Inhibition of N-terminal His-6 tagged USP8 (734 to 1110 residues) (unknown origin) expressed in Escherichia coli BL21 (DE3) cells at 10 nM measured after 3 hrs by fluorescence based Plate reader method relative to control; conditions: values are per cent of control
[4] = target: T2, Ubiquitin thioesterase OTUB1; assay: Inhibition of N-terminal His-6 tagged OTUB1 (40 to 271 residues) (unknown origin) expressed in Escherichia coli BL21 (DE3) cells at 10 nM using Ub-Rho measured after 0.5 to 3 hrs by fluorescence based Plate reader method relative to control; conditions: time 0.5-3 hrs, values are per cent of control

T2 sequence (Q96FW1 whole entry, the tested form may be a part): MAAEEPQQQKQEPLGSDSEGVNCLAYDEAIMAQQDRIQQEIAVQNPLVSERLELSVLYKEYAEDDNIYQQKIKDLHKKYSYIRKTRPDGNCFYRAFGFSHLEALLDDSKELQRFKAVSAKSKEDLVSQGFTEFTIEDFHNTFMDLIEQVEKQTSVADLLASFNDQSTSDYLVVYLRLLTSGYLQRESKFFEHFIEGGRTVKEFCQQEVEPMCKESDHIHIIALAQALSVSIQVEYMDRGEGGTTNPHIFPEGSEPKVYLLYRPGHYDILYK

Row | Compound | residual activity [1] [%] | residual activity [2] [%] | residual activity [3] [%] | residual activity [4] [%]
1 | COc1ccccc1-c1nc2c(o1)C(=O)c1ccccc1C2=O | 21.4 | 28.3 | 43.9 | 59.2
2 | O=C1c2ccccc2C(=O)c2oc(-c3c(F)cccc3F)nc21 | 37.4 | 24 | 39.1 | 56.2
3 | COc1ccc(Cl)c(-c2nc3c(o2)C(=O)c2ccccc2C3=O)c1F | 20.4 | 26.3 | 74.1 | 48.7
4 | COc1cc(OC)cc(-c2nc3c(o2)C(=O)c2ccccc2C3=O)c1 | 52.2 | 48.1 | 72.2 | 83.6
5 | Cc1cccc(Cl)c1-c1nc2c(o1)C(=O)c1ccccc1C2=O | 15.5 | 23.5 | 40.1 | 55.4
6 | O=C1c2ccccc2C(=O)c2oc(-c3cccc(Cl)c3)nc21 | 49.3 | 34.7 | 66.3 | 60.4
7 | COc1ccc2c(c1)C(=O)c1nc(-c3cccc(OCCN(C)C)c3)[nH]c1C2=O | 99.6 | 77.2 | 95.3 | 78.4
8 | O=C1c2ccccc2C(=O)c2oc(-c3c(F)c(F)cc(F)c3F)nc21 | 24.1 | 14.1 | 38.3 | 39.4
9 | O=C1c2ccccc2C(=O)c2oc(-c3c(F)ccc(F)c3F)nc21 | 21.9 | 15.6 | 36.6 | 40.7
10 | COc1cccc(-c2nc3c(o2)C(=O)c2ccccc2C3=O)c1F | 25.5 | 22.4 | 42.6 | 52.9
11 | O=C1c2ccccc2C(=O)c2oc(-c3cccc(F)c3F)nc21 | 22.7 | 19.8 | 40.1 | 50.2
12 | CN1CC[C@@H](Oc2ccc(-c3nc4c(o3)C(=O)c3ccccc3C4=O)c(Cl)c2)C1 | 34.7 | 35.1 | 58.9 | 70.9
13 | Cc1cccc(-c2nc3c(o2)C(=O)c2ccccc2C3=O)c1 | 40.9 | 49.2 | 63.6 | 63.1
14 | Cc1ccc(-c2nc3c(o2)C(=O)c2ccccc2C3=O)cc1 | 44.6 | 58.7 | 58.6 | 66.9
15 | O=C1c2ccccc2C(=O)c2oc(-c3ccc([N+](=O)[O-])cc3)nc21 | 9.3 | 16.3 | 20.2 | 36.1
16 | O=C1c2ccccc2C(=O)c2oc(-c3cc(Cl)ccc3Cl)nc21 | 32.2 | 25.2 | 44.5 | 52.7
17 | O=C1c2ccccc2C(=O)c2oc(-c3ccc(F)cc3Cl)nc21 | 37.4 | 23.5 | 28.5 | 47.6
18 | COc1ccc(Cl)c(-c2nc3c(o2)C(=O)c2ccccc2C3=O)c1 | 24 | 25.8 | 47.1 | 63.2
19 | O=C1c2ccccc2C(=O)c2oc(-c3c(Cl)cccc3Cl)nc21 | 24.9 | 21 | 44.6 | 52.4
20 | CN1CCN(CCOc2cc(Cl)cc(-c3nc4c(o3)C(=O)c3ccccc3C4=O)c2)CC1 | 27.9 | 36.3 | 58.8 | 77.3
21 | COc1cc(-c2nc3c(o2)C(=O)c2ccccc2C3=O)ccc1C(F)(F)F | 42.7 | 46.4 | 58.5 | 71.4

Row | Compound | residual activity [1] [%] | residual activity [2] [%] | residual activity [3] [%] | residual activity [4] [%]
22 | COc1cc(O[C@@H]2CCN(C)C2)cc(-c2nc3c(o2)C(=O)c2ccccc2C3=O)c1 | 46.2 | 44.2 | 71.2 | 77.1
23 | O=C1c2ccccc2C(=O)c2oc(-c3ccc(F)cc3)nc21 | 23.3 | 24.6 | 53.5 | 55.8
24 | O=C1c2ccccc2C(=O)c2oc(-c3cccc(F)c3)nc21 | 37.2 | 26.3 | 59.1 | 55.3
25 | O=C1c2ccccc2C(=O)c2oc(-c3ccc(Cl)cc3)nc21 | 22.5 | 34.2 | 55.9 | 61.3
26 | Cc1ccc(F)c(-c2nc3c(o2)C(=O)c2ccccc2C3=O)c1F | 30.5 | 22.7 | 62.1 | 53.7
27 | COc1ccc(-c2nc3c(o2)C(=O)c2ccccc2C3=O)c(C(F)(F)F)c1 | 18.6 | 41.7 | 80.5 | 84.9
28 | O=C1c2ccccc2C(=O)c2oc(-c3cccc(OCCN4CCOCC4)c3)nc21 | 44.3 | 47.2 | 80 | 82.1
29 | CN1CC[C@@H](Oc2cc(Cl)cc(-c3nc4c(o3)C(=O)c3ccccc3C4=O)c2)C1 | 34.2 | 41.5 | 59.3 | 75
30 | COc1cc(F)cc(-c2nc3c([nH]2)C(=O)c2ccccc2C3=O)c1 | 85.2 | 77.9 | 91.4 | 84.8
31 | Cc1ccccc1-c1nc2c(o1)C(=O)c1ccccc1C2=O | 38.1 | 48.4 | 63.6 | 66.4
32 | COc1ccc(F)c(-c2nc3c(o2)C(=O)c2ccccc2C3=O)c1 | 33.1 | 31.2 | 61.1 | 75
33 | O=C1c2ccccc2C(=O)c2oc(-c3ccccc3C(F)(F)F)nc21 | 17.7 | 25.8 | 50.7 | 62.6
34 | COc1cc(Cl)cc(-c2nc3c(o2)C(=O)c2ccccc2C3=O)c1 | 24 | 40.7 | 49 | 74.4
35 | O=C1c2ccccc2C(=O)c2[nH]c(-c3ccccc3)nc21 | 92.5 | 78.3 | 92.5 | 84.3
36 | COc1c(Cl)ccc(Cl)c1-c1nc2c(o1)C(=O)c1ccccc1C2=O | 35.6 | 42.4 | 56.9 | 69.4
37 | COc1cc(F)cc(-c2nc3c(o2)C(=O)c2ccccc2C3=O)c1 | 17.6 | 25.1 | 37.2 | 62.8
38 | O=C1c2ccccc2C(=O)c2oc(-c3ccccc3F)nc21 | 19.2 | 27.3 | 37.1 | 55.5
39 | CN1CC[C@H](Oc2cccc(-c3nc4c(o3)C(=O)c3ccccc3C4=O)c2)C1 | 29.8 | 38.7 | 60.2 | 75.6
40 | COc1cc(-c2nc3c(o2)C(=O)c2ccccc2C3=O)ccc1C | 56.7 | 59.9 | 57.9 | 70.8
41 | O=C1c2ccccc2C(=O)c2oc(-c3ccccc3Cl)nc21 | 20.8 | 25.1 | 43.1 | 60
42 | CN1CC[C@@H](Oc2ccc(-c3nc4c(o3)C(=O)c3ccccc3C4=O)cc2Cl)C1 | 31.2 | 38.5 | 65.5 | 69.8
